Measurements from ChEMBL document CHEMBL2390945, “Synthesis and characterization of 123I-CMICE-013: a potential SPECT myocardial perfusion imaging agent” (Bioorg Med Chem, 2013).

Assays:
[1] = Drug uptake in left ventricle of Sprague-Dawley rat ischemia reperfusion injury model at 74 MBq, iv measured for 60 mins by TTC staining-based micro-SPECT analysis; assay type: ADME, organism-based, Heart left ventricle; details: in vivo, 1 h
[2] = Drug uptake in left ventricle of Sprague-Dawley rat left anterior descending occlusion model at 74 MBq, iv measured for 60 mins by TTC staining-based micro-SPECT analysis; assay type: ADME, organism-based, Heart left ventricle; details: in vivo, 1 h
[3] = Drug uptake in Sprague-Dawley rat parathyroid at 37 to 111 MBq, iv measured for 60 mins by TTC staining-based micro-SPECT analysis; assay type: ADME, organism-based, Thyroid gland; details: in vivo, 1 h
Thyroid gland [4] = experiment: Drug uptake in Sprague-Dawley rat thyroid at 37 to 111 MBq, iv measured for 60 mins by TTC staining-based micro-SPECT analysis; assay type: ADME, organism-based; details: in vivo, 1 h
Liver [5] = experiment: Drug uptake in Sprague-Dawley rat liver at 37 to 111 MBq, iv measured for 60 mins by TTC staining-based micro-SPECT analysis; assay type: ADME, organism-based; details: in vivo, 1 h
Lung [6] = experiment: Drug uptake in Sprague-Dawley rat lung at 37 to 111 MBq, iv measured for 60 mins by TTC staining-based micro-SPECT analysis; assay type: ADME, organism-based; details: in vivo, 1 h
[7] = Drug uptake in Sprague-Dawley rat myocardium at 37 to 111 MBq, iv measured for 60 mins by TTC staining-based micro-SPECT analysis; assay type: ADME, organism-based; details: in vivo, 1 h
[8] = Ratio of drug level in heart to blood in Sprague-Dawley rat at 37 to 111 MBq, iv measured at 24 hrs; assay type: ADME, organism-based
Thyroid gland [9] = experiment: Biodistribution in Sprague-Dawley rat thyroid assessed per organ at 37 to 111 MBq, iv measured at 24 hrs by gamma counting analysis; assay type: ADME, organism-based; details: in vivo
Thyroid gland [10] = experiment: Biodistribution in Sprague-Dawley rat thyroid at 37 to 111 MBq, iv measured at 24 hrs by gamma counting analysis; assay type: ADME, organism-based; details: in vivo
Rattus norvegicus [11] = experiment: Biodistribution in Sprague-Dawley rat stomach at 37 to 111 MBq, iv measured at 24 hrs by gamma counting analysis; assay type: ADME, organism-based; details: in vivo
Ovary [12] = experiment: Biodistribution in Sprague-Dawley rat ovary at 37 to 111 MBq, iv measured at 24 hrs by gamma counting analysis; assay type: ADME, organism-based, Female gonad; details: in vivo
Rattus norvegicus [13] = experiment: Biodistribution in Sprague-Dawley rat testis at 37 to 111 MBq, iv measured at 24 hrs by gamma counting analysis; assay type: ADME, organism-based; details: in vivo
Lung [14] = experiment: Biodistribution in Sprague-Dawley rat lung at 37 to 111 MBq, iv measured at 24 hrs by gamma counting analysis; assay type: ADME, organism-based; details: in vivo
Heart [15] = experiment: Biodistribution in Sprague-Dawley rat heart at 37 to 111 MBq, iv measured at 24 hrs by gamma counting analysis; assay type: ADME, organism-based; details: in vivo
Kidney [16] = experiment: Biodistribution in Sprague-Dawley rat kidney at 37 to 111 MBq, iv measured at 24 hrs by gamma counting analysis; assay type: ADME, organism-based; details: in vivo
Intestine [17] = experiment: Biodistribution in Sprague-Dawley rat intestine at 37 to 111 MBq, iv measured at 24 hrs by gamma counting analysis; assay type: ADME, organism-based; details: in vivo
Brain [18] = experiment: Biodistribution in Sprague-Dawley rat brain at 37 to 111 MBq, iv measured at 24 hrs by gamma counting analysis; assay type: ADME, organism-based; details: in vivo
Blood [19] = experiment: Biodistribution in Sprague-Dawley rat blood at 37 to 111 MBq, iv measured at 24 hrs by gamma counting analysis; assay type: ADME, organism-based; details: in vivo
Spleen [20] = experiment: Biodistribution in Sprague-Dawley rat spleen at 37 to 111 MBq, iv measured at 24 hrs by gamma counting analysis; assay type: ADME, organism-based; details: in vivo
Muscle tissue [21] = experiment: Biodistribution in Sprague-Dawley rat muscle at 37 to 111 MBq, iv measured at 24 hrs by gamma counting analysis; assay type: ADME, organism-based; details: in vivo
Femur [22] = experiment: Biodistribution in Sprague-Dawley rat femur at 37 to 111 MBq, iv measured at 24 hrs by gamma counting analysis; assay type: ADME, organism-based; details: in vivo
Liver [23] = experiment: Biodistribution in Sprague-Dawley rat liver at 37 to 111 MBq, iv measured at 24 hrs by gamma counting analysis; assay type: ADME, organism-based; details: in vivo
Rattus norvegicus [24] = experiment: Biodistribution in Sprague-Dawley rat urinary bladder at 37 to 111 MBq, iv measured at 24 hrs by gamma counting analysis; assay type: ADME, organism-based; details: in vivo
[25] = Ratio of drug level in heart to blood in Sprague-Dawley rat at 37 to 111 MBq, iv measured at 2 hrs; assay type: ADME, organism-based
Thyroid gland [26] = experiment: Biodistribution in Sprague-Dawley rat thyroid assessed per organ at 37 to 111 MBq, iv measured at 2 hrs by gamma counting analysis; assay type: ADME, organism-based; details: in vivo
Thyroid gland [27] = experiment: Biodistribution in Sprague-Dawley rat thyroid at 37 to 111 MBq, iv measured at 2 hrs by gamma counting analysis; assay type: ADME, organism-based; details: in vivo
Rattus norvegicus [28] = experiment: Biodistribution in Sprague-Dawley rat stomach at 37 to 111 MBq, iv measured at 2 hrs by gamma counting analysis; assay type: ADME, organism-based; details: in vivo
Ovary [29] = experiment: Biodistribution in Sprague-Dawley rat ovary at 37 to 111 MBq, iv measured at 2 hrs by gamma counting analysis; assay type: ADME, organism-based, Female gonad; details: in vivo
Rattus norvegicus [30] = experiment: Biodistribution in Sprague-Dawley rat testis at 37 to 111 MBq, iv measured at 2 hrs by gamma counting analysis; assay type: ADME, organism-based; details: in vivo
Lung [31] = experiment: Biodistribution in Sprague-Dawley rat lung at 37 to 111 MBq, iv measured at 2 hrs by gamma counting analysis; assay type: ADME, organism-based; details: in vivo
Heart [32] = experiment: Biodistribution in Sprague-Dawley rat heart at 37 to 111 MBq, iv measured at 2 hrs by gamma counting analysis; assay type: ADME, organism-based; details: in vivo
Kidney [33] = experiment: Biodistribution in Sprague-Dawley rat kidney at 37 to 111 MBq, iv measured at 2 hrs by gamma counting analysis; assay type: ADME, organism-based; details: in vivo
Intestine [34] = experiment: Biodistribution in Sprague-Dawley rat intestine at 37 to 111 MBq, iv measured at 2 hrs by gamma counting analysis; assay type: ADME, organism-based; details: in vivo
Brain [35] = experiment: Biodistribution in Sprague-Dawley rat brain at 37 to 111 MBq, iv measured at 2 hrs by gamma counting analysis; assay type: ADME, organism-based; details: in vivo
Blood [36] = experiment: Biodistribution in Sprague-Dawley rat blood at 37 to 111 MBq, iv measured at 2 hrs by gamma counting analysis; assay type: ADME, organism-based; details: in vivo
Muscle tissue [37] = experiment: Biodistribution in Sprague-Dawley rat muscle at 37 to 111 MBq, iv measured at 2 hrs by gamma counting analysis; assay type: ADME, organism-based; details: in vivo
Femur [38] = experiment: Biodistribution in Sprague-Dawley rat femur at 37 to 111 MBq, iv measured at 2 hrs by gamma counting analysis; assay type: ADME, organism-based; details: in vivo
Liver [39] = experiment: Biodistribution in Sprague-Dawley rat liver at 37 to 111 MBq, iv measured at 2 hrs by gamma counting analysis; assay type: ADME, organism-based; details: in vivo
Rattus norvegicus [40] = experiment: Biodistribution in Sprague-Dawley rat urinary bladder at 37 to 111 MBq, iv measured at 2 hrs by gamma counting analysis; assay type: ADME, organism-based; details: in vivo
[41] = Biodistribution in Sprague-Dawley rat urine at 37 to 111 MBq, iv measured at 2 hrs by gamma counting analysis; assay type: ADME, organism-based; details: in vivo
[42] = Biodistribution in Sprague-Dawley rat urine at 37 to 111 MBq, iv measured at 24 hrs by gamma counting analysis; assay type: ADME, organism-based; details: in vivo
Spleen [43] = experiment: Biodistribution in Sprague-Dawley rat spleen at 37 to 111 MBq, iv measured at 2 hrs by gamma counting analysis; assay type: ADME, organism-based; details: in vivo
[44] = Ratio of drug level in heart to lung in Sprague-Dawley rat at 37 to 111 MBq, iv measured at 2 hrs; details: in vivo
[45] = Ratio of drug level in heart to lung in Sprague-Dawley rat at 37 to 111 MBq, iv measured at 24 hrs; details: in vivo
[46] = Ratio of drug level in heart to liver in Sprague-Dawley rat at 37 to 111 MBq, iv measured at 2 hrs; details: in vivo
[47] = Ratio of drug level in heart to liver in Sprague-Dawley rat at 37 to 111 MBq, iv measured at 24 hrs; details: in vivo

## COc1cc2c(cc1OC)[C@@H]1C(=O)c3ccc4c(c3O[C@@H]1CO2)C[C@H](C(C)(O)C[123I])O4 (some centres not stated)
[1]
  Drug uptake: Active
[2]
  Drug uptake: Active
[3]
  Drug uptake: Active
Thyroid gland [4]
  Drug uptake: Active
Liver [5]
  Drug uptake: Not Active
Lung [6]
  Drug uptake: Not Active
[7]
  Drug uptake: Active
[8]
  Kp at 24 h: 0.79
Thyroid gland [9]
  Drug uptake: 3.16 %ID
Thyroid gland [10]
  Drug uptake: 13.329 % ID/g
Rattus norvegicus [11]
  Drug uptake: 2.121 % ID/g
Ovary [12]
  Drug uptake: 0.04 % ID/g
Rattus norvegicus [13]
  Drug uptake: 0.04 % ID/g
Lung [14]
  Drug uptake: 0.055 % ID/g
Heart [15]
  Drug uptake: 0.045 % ID/g
Kidney [16]
  Drug uptake: 0.044 % ID/g
Intestine [17]
  Drug uptake: 0.122 % ID/g
Brain [18]
  Drug uptake: 0.003 % ID/g
Blood [19]
  Drug uptake: 0.06 % ID/g
Spleen [20]
  Drug uptake: 0.032 % ID/g
Muscle tissue [21]
  Drug uptake: 0.024 % ID/g
Femur [22]
  Drug uptake: 0.025 % ID/g
Liver [23]
  Drug uptake: 0.042 % ID/g
Rattus norvegicus [24]
  Drug uptake: 0.768 % ID/g
[25]
  Kp at 2 h: 8.37
Thyroid gland [26]
  Drug uptake: 0.334 %ID
Thyroid gland [27]
  Drug uptake: 1.368 % ID/g
Rattus norvegicus [28]
  Drug uptake: 3.263 % ID/g
Ovary [29]
  Drug uptake: 0.22 % ID/g
Rattus norvegicus [30]
  Drug uptake: 0.22 % ID/g
Lung [31]
  Drug uptake: 0.502 % ID/g
Heart [32]
  Drug uptake: 2.01 % ID/g
Kidney [33]
  Drug uptake: 0.7 % ID/g
Intestine [34]
  Drug uptake: 0.846 % ID/g
Brain [35]
  Drug uptake: 0.098 % ID/g
Blood [36]
  Drug uptake: 0.257 % ID/g
Muscle tissue [37]
  Drug uptake: 0.357 % ID/g
Femur [38]
  Drug uptake: 0.242 % ID/g
Liver [39]
  Drug uptake: 0.709 % ID/g
Rattus norvegicus [40]
  Drug uptake: 0.918 % ID/g
[41]
  Drug uptake: 0.918 % ID/g
[42]
  Drug uptake: 0.768 % ID/g
Spleen [43]
  Drug uptake: 0.234 % ID/g
[44]
  Ratio: 4.11
[45]
  Ratio: 0.85
[46]
  Ratio: 2.98
[47]
  Ratio: 1.08
